pIC50: −log10 of the molar value.
Experiments:
KRAS G12D/RAF1 = molecular target: T1, KRAS G12D/RAF1 (Homo sapiens, UniProt P01116, G12D); assay: Protein-protein interaction (PPI) HTRF assay KRAS G12D/RAF1; assay type: binding; conditions: KRAS G12D/RAF1, GppNHp-loaded KRAS; 30 minutes pre-incubation
T1 construct: KRAS (1-169) proteins were expressed in E. coli at 18° C; His6-MBP (N, cleaved yes); made in house; host or cells: E. coli
In short: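 Biotinylated GppNHp-loaded RAS (1-169) on streptavidin-d2 acceptor and His-RAF1 RBD (52-131) on anti-His Tb donor, each prepared at 16 nM in pH 7.5 Tris buffer. Compound preincubated with RAS 30 min, then RAF1 added for 1 h at room temperature. IC50 from HTRF 665/615 ratio, normalized to no compound (0%) and untagged RAF1 (100%).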

[1] = system: AGS (KRAS G12D) cells, phospho-ERK; assay: pERK In Cell Western (ICW) assay (Method B); assay type: cell-based; conditions: Homo sapiens, 3 hours
In short: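 AGS cells seeded at 5,000/well, grown overnight, then treated 3 h at 37 °C with ½-log 10-point dilutions (top 10 μM). Fixed cells stained for phospho-ERK, normalized to DRAQ5 DNA signal and to DMSO control; IC50 from 4-parameter variable-slope fit.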

T1 sequence (P01116 1-169 isoform P01116-2 G12D): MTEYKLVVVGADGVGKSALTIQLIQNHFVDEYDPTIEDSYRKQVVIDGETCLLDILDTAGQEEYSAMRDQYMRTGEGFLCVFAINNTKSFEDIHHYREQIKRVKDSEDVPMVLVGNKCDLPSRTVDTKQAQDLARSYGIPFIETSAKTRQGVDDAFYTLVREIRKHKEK

Row | Compound | pIC50 (KRAS G12D/RAF1) | IC50 [1]
1 | CN(C)C(=O)c1cc2n(n1)CCCN(c1nc(OC[C@@]34CCCN3C[C@H](F)C4)nc3c1CN(C)[C@@]1(CCCc4ccccc41)C3)C2 [Compound 72, 5-[(7S)-2-[[(2R,8S)-2-fluoro-1,2,3,5,6,7-hexahydropyrrolizin-8-yl]methoxy]-6-methyl-spiro[5,8-dihydropyrido[4,3-d]pyrimidine-7,1′-tetralin]-4-yl]-N,N-dimethyl-4,6,7,8-tetrahydropyrazolo[1,5-a][1,4]diazepine-2-carboxamide] | 4.00 to 5.00 | 0.1 to 1 µM
2 | CN1Cc2c(nc(OC[C@@]34CCCN3C[C@H](F)C4)nc2N2CCCn3nc(N)c(Cl)c3C2)C[C@]12CCCc1ccccc12 [Compound 79, 3-chloro-5-[(7S)-2-[[(2R,8S)-2-fluoro-1,2,3,5,6,7-hexahydropyrrolizin-8-yl]methoxy]-6-methyl-spiro[5,8-dihydropyrido[4,3-d]pyrimidine-7,1′-tetralin]-4-yl]-4,6,7,8-tetrahydropyrazolo[1,5-a][1,4]diazepin-2-amine] | < 4.00 | 1 to 10 µM
3 | C#Cc1c(C(=O)N(C)C)nn2c1CN(c1nc(OC[C@@]34CCCN3C[C@H](F)C4)nc3c1CN(C)[C@@]1(CCCc4ccccc41)C3)CCC2 [Compound 81, 3-ethynyl-5-[(7S)-2-[[(2R,8S)-2-fluoro-1,2,3,5,6,7-hexahydropyrrolizin-8-yl]methoxy]-6-methyl-spiro[5,8-dihydropyrido[4,3-d]pyrimidine-7,1′-tetralin]-4-yl]-N,N-dimethyl-4,6,7,8-tetrahydropyrazolo[1,5-a][1,4]diazepine-2-carboxamide] | 4.00 to 5.00 | 0.01 to 0.1 µM
4 | CN1Cc2c(nc(OC[C@@]34CCCN3C[C@H](F)C4)nc2N2C[C@H]3CC[C@@H](C2)N3)C[C@]12CCCc1ccccc12 [Compound 84, (7S)-4-[(1R,5S)-3,8-diazabicyclo[3.2.1]octan-3-yl]-2-[[(2R,8S)-2-fluoro-1,2,3,5,6,7-hexahydropyrrolizin-8-yl]methoxy]-6-methyl-spiro[5,8-dihydropyrido[4,3-d]pyrimidine-7,1′-tetralin]] | < 4.00 | 1 to 10 µM
5 | Cc1nc(-c2nn3c(c2Cl)CN(c2nc(OC[C@@]45CCCN4C[C@H](F)C5)nc4c2CN(C)[C@@]2(CCCc5ccccc52)C4)CCC3)no1 [Compound 87, 3-[3-chloro-5-[(7S)-2-[[(2R,8S)-2-fluoro-1,2,3,5,6,7-hexahydropyrrolizin-8-yl]methoxy]-6-methyl-spiro[5,8-dihydropyrido[4,3-d]pyrimidine-7,1′-tetralin]-4-yl]-4,6,7,8-tetrahydropyrazolo[1,5-a][1,4]diazepin-2-yl]-5-methyl-1,2,4-oxadiazole] | 4.00 to 5.00 | 0.1 to 1 µM
6 | Cc1nnc(-c2nn3c(c2Cl)CN(c2nc(OC[C@@]45CCCN4C[C@H](F)C5)nc4c2CN(C)[C@@]2(CCCc5ccccc52)C4)CCC3)n1C [Compound 90, (7S)-4-[3-chloro-2-(4,5-dimethyl-1,2,4-triazol-3-yl)-4,6,7,8-tetrahydropyrazolo[1,5-a][1,4]diazepin-5-yl]-2-[[(2R,8S)-2-fluoro-1,2,3,5,6,7-hexahydropyrrolizin-8-yl]methoxy]-6-methyl-spiro[5,8-dihydropyrido[4,3-d]pyrimidine-7,1′-tetralin]] | 4.00 to 5.00 | 0.01 to 0.1 µM
7 | CN(C)C(=O)c1nn2c(c1Cl)CN(c1nc(OC[C@@]34CCCN3C[C@H](F)C4)nc3c1CN(C)[C@@]1(CCc4cccc(O)c41)C3)CCC2 [Compound 96, 3-chloro-5-[(7S)-2-[[(2R,8S)-2-fluoro-1,2,3,5,6,7-hexahydropyrrolizin-8-yl]methoxy]-7′-hydroxy-6-methyl-spiro[5,8-dihydropyrido[4,3-d]pyrimidine-7,1′-indane]-4-yl]-N,N-dimethyl-4,6,7,8-tetrahydropyrazolo[1,5-a][1,4]diazepine-2-carboxamide] | 4.00 to 5.00 | 0.01 to 0.1 µM
8 | CN(C)CC1(COc2nc3c(c(N4CCCn5nc(C(=O)N(C)C)c(Cl)c5C4)n2)CN(C)[C@@]2(CCCc4ccccc42)C3)CC1(F)F (stereo partly drawn) [Compound 97, 3-chloro-5-[(7S)-2-[[1-[(dimethylamino)methyl]-2,2-difluoro-cyclopropyl]methoxy]-6-methyl-spiro[5,8-dihydropyrido[4,3-d]pyrimidine-7,1′-tetralin]-4-yl]-N,N-dimethyl-4,6,7,8-tetrahydropyrazolo[1,5-a][1,4]diazepine-2-carboxamide] | < 4.00 | 1 to 10 µM
9 | CN1Cc2c(nc(OC[C@@]34CCCN3C[C@H](F)C4)nc2N2CCCn3nc(-c4nnnn4C)c(Cl)c3C2)C[C@]12CCCc1ccccc12 [Compound 99, (7S)-4-[3-chloro-2-(1-methyltetrazol-5-yl)-4,6,7,8-tetrahydropyrazolo[1,5-a][1,4]diazepin-5-yl]-2-[[(2R,8S)-2-fluoro-1,2,3,5,6,7-hexahydropyrrolizin-8-yl]methoxy]-6-methyl-spiro[5,8-dihydropyrido[4,3-d]pyrimidine-7,1′-tetralin]] | < 4.00 | 0.1 to 1 µM

— patent US11912723B2, “KRAS modulators and uses thereof” (Quanta Therapeutics, Inc., priority 2022, dated 2024)
